The values that follow are results of earlier work, collected in US7132111B2, “Odorless formulation for treating mucosal discontinuities” (Epien Medical, Inc., priority 2003, dated 2006).

Molecules are shown by their SMILES.

The subject of the data set is aphthous ulcers. Particulars: applied locally, three times a day.

Turning to `CN(C)[C@@H]1C(O)=C(C(N)=O)C(=O)[C@@]2(O)C(O)=C3C(=O)c4c(O)ccc(Cl)c4[C@@](C)(O)[C@H]3C[C@@H]12` [Aureomycin], the “duration of analgesic effect” value was “one half to two”. For the same compound, the “duration of the ulcers with treatment” value (reduced from about 10 days) is roughly 5 days.
